{
  "source": "ChEMBL document CHEMBL5247623",
  "about": "“The SAR and action mechanisms of autophagy inhibitors that eliminate drug resistance” (Eur J Med Chem, 2022)",
  "key": {"BT-474": {"tested_on": "BT-474", "assay": "Inhibition of autophagy in human BT-474 cells", "assay_type": "functional, cell-based"}, "[1]": {"molecular_target": "Phosphatidylinositol 4,5-bisphosphate 3-kinase catalytic subunit gamma isoform (Homo sapiens, UniProt P48736)", "sequence (P48736 whole entry, canonical isoform)": "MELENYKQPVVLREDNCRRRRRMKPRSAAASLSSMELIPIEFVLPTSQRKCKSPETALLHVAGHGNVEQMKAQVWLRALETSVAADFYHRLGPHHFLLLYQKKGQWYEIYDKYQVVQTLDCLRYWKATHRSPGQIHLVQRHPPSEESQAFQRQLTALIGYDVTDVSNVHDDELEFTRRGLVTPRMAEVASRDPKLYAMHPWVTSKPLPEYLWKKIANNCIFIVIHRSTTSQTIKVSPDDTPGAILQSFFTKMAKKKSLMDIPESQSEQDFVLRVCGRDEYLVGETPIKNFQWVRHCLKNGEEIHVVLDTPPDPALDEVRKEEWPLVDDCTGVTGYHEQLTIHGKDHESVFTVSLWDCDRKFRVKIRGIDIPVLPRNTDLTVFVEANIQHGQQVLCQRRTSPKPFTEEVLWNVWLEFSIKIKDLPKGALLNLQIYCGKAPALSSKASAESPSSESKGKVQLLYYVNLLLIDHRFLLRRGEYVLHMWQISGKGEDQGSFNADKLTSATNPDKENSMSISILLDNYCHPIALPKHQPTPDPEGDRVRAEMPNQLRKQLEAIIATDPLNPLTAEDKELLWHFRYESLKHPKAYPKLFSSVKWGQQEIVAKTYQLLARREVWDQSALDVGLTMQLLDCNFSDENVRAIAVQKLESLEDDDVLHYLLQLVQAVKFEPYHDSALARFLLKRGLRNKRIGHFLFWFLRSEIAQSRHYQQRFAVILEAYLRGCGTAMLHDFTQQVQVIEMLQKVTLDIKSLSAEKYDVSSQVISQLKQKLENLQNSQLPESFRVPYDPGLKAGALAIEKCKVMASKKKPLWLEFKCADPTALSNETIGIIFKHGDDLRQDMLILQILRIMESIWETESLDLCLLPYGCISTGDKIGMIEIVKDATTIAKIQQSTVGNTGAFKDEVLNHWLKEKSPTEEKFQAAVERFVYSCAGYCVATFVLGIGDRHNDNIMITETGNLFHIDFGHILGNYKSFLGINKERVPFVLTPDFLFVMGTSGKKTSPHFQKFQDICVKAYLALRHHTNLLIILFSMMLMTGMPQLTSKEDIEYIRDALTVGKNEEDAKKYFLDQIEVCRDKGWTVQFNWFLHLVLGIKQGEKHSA", "assay": "Inhibition of P13Kgamma (unknown origin)"}, "[2]": {"assay": "Inhibition of V-ATPase (unknown origin)", "parameters": "species or system Homo sapiens"}, "[3]": {"molecular_target": "AMP-activated protein kinase, AMPK", "assay": "Inhibition of rat AMPK", "assay_type": "protein-complex assay"}, "[4]": {"molecular_target": "T1, Serine/threonine-protein kinase ULK1 (Homo sapiens, UniProt O75385)", "T1 sequence (O75385 whole entry)": "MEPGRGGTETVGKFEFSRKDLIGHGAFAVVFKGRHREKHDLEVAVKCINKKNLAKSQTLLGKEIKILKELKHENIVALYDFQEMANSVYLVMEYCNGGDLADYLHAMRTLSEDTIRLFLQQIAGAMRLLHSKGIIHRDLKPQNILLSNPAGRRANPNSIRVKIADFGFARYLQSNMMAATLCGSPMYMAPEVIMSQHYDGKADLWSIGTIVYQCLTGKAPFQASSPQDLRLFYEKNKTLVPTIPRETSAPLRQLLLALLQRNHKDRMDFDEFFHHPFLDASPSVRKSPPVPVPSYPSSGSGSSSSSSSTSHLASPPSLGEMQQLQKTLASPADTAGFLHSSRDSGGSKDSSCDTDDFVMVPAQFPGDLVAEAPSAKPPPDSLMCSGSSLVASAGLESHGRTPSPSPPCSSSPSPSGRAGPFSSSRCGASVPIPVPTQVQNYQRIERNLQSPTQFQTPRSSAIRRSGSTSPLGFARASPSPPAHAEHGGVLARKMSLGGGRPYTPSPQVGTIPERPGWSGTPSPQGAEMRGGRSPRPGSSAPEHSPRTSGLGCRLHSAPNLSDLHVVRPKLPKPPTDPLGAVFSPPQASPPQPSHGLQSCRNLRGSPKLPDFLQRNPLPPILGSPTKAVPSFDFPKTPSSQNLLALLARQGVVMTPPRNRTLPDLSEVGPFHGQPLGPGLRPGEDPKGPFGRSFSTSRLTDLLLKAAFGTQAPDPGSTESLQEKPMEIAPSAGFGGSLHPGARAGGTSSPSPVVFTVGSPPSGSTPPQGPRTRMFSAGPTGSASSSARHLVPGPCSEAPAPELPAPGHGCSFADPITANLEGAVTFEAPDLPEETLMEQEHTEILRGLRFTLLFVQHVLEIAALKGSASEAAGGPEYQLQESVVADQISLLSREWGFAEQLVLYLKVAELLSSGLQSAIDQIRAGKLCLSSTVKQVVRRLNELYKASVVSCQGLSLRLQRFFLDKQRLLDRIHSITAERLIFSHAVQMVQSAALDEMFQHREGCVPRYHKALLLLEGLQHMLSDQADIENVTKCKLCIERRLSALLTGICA", "assay": "Inhibition of ULK1 (unknown origin)"}, "[5]": {"molecular_target": "T2, Serine/threonine-protein kinase ULK2 (Homo sapiens, UniProt Q8IYT8)", "T2 sequence (Q8IYT8 whole entry)": "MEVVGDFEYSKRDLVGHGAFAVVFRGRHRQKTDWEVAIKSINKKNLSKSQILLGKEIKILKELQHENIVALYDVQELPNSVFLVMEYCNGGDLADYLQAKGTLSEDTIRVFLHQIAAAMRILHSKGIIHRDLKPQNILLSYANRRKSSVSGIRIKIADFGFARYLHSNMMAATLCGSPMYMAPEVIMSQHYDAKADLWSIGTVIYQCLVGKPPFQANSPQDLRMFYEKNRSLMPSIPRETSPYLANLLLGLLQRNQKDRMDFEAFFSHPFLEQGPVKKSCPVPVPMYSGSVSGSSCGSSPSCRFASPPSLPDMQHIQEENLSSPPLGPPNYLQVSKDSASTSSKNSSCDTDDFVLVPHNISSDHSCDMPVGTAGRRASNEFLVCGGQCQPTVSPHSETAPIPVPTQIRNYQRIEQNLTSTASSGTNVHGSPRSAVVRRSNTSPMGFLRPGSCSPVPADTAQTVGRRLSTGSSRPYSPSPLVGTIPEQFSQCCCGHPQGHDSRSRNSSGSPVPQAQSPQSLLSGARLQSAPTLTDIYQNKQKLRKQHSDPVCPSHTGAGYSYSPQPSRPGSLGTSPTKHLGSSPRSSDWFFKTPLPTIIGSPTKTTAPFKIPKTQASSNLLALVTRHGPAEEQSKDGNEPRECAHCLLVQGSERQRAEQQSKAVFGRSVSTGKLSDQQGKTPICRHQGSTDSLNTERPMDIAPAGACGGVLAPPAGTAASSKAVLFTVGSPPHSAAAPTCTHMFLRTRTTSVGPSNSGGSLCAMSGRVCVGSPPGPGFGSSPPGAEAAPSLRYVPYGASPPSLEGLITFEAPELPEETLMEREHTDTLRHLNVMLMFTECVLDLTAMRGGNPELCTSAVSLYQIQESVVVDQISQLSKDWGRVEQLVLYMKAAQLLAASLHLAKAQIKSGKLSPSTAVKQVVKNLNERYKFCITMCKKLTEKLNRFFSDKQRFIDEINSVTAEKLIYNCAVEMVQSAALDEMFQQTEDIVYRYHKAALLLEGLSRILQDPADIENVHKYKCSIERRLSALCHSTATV", "assay": "Inhibition of ULK2 (unknown origin)"}, "[6]": {"assay": "Inhibition of bafilomycin induced autophagic flux in mouse embryonic fibroblast cells assessed as fold change in LC3-II levels at 1 uM incubated for 1 hr by immunoblot analysis relative to control", "assay_type": "functional"}},
  "data": [
    {"smiles": "CN1CCN(Cc2cc(CNC3(c4ccccc4F)CCCC3)ccc2O)CC1", "values": [
      {"measurement": "EC50", "setting": "BT-474; read-out: EC50", "result": 9.5, "unit": "µM"}
    ]},
    {"smiles": "CCN(CC)CCCC(C)Nc1ccnc2cc(Cl)ccc12", "note": "(centres undefined) [CHLOROQUINE]", "values": [
      {"measurement": "EC50", "setting": "BT-474", "result": 4.8, "unit": "µM"}
    ]},
    {"smiles": "Cn1cnc(N)c2ncnc1-2", "note": "[3-METHYLADENINE]", "values": [
      {"measurement": "IC50", "setting": "[1]", "result": 60, "unit": "µM"}
    ]},
    {"smiles": "CO/C1=C\\C(C)=C\\[C@@H](C)[C@@H](O)[C@@H](C)C/C(C)=C/C=C/[C@H](OC)[C@@H]([C@@H](C)[C@@H](O)[C@H](C)[C@@]2(O)C[C@@H](O)[C@H](C)[C@@H](C(C)C)O2)OC1=O", "note": "[BAFILOMYCIN A1]", "values": [
      {"measurement": "IC50", "setting": "[2]", "result": 0.44, "unit": "nM"}
    ]},
    {"smiles": "c1cc(-c2cnn3cc(-c4ccc(OCCN5CCCCC5)cc4)cnc23)ccn1", "note": "[DORSOMORPHIN]", "values": [
      {"measurement": "IC50", "setting": "[3]", "result": 1280, "unit": "nM"}
    ]},
    {"smiles": "O=C(NCCCNc1nc(Nc2cccc(CN3CCOCC3)c2)ncc1C1CC1)C1CC1", "values": [
      {"measurement": "IC50", "setting": "[4]", "result": 2.9, "unit": "nM"},
      {"measurement": "IC50", "setting": "[5]", "result": 1.1, "unit": "nM"},
      {"measurement": "fold change (FC)", "setting": "[6]", "result": 2}
    ]},
    {"smiles": "CCN(CC)CCNC(=O)c1c(C)[nH]c(/C=C2\\C(=O)Nc3ccc(F)cc32)c1C", "note": "[SUNITINIB]", "values": [
      {"measurement": "IC50", "setting": "[3]", "result": 62, "unit": "nM"}
    ]}
  ]
}
